Assay results published in patent US20230022745A1, “Methods for Labeling a Population of RNA Molecules” (priority 2013, published 2023).
Entries after “also recorded” stand apart in the source; their conditions may differ.

B1: S. pombe HNT3 protein (protein, UniProt O74859 1-232, looked up)
Aprataxin-like protein: MSVHKTNDAFKVLMNSAKEPIVEDIPKKYRKQSFRDNLKVYIESPESYKNVIYYDDDVVLVRDMFPKSKMHLLLMTRDPHLTHVHPLEIMMKHRSLVEKLVSYVQGDLSGLIFDEARNCLSQQLTNEALCNYIKVGFHAGPSMNNLHLHIMTLDHVSPSLKNSAHYISFTSPFFVKIDTPTSNLPTRGTLTSLFQEDLKCWRCGETFGRHFTKLKAHLQEEYDDWLDKSVSM
B2: RppH (protein, UniProt P0A776 1-176, looked up)
RNA pyrophosphohydrolase: MIDDDGYRPNVGIVICNRQGQVMWARRFGQHSWQFPQGGINPGESAEQAMYRELFEEVGLSRKDVRILASTRNWLRYKLPKRLVRWDTKPVCIGQKQKWFLLQLVSGDAEINMQTSSTPEFDGWRWVSYWYPVRQVVSFKRDVYRRVMKEFASVVMSLQENTPKPQNASAYRRKRG

Columns and labels:
Format in all cases: biochemical
[1] = system: Vaccinia Capping Enzyme (VCE)
[2] = system: Vaccinia Capping Enzyme (VCE); remark: listed apart in the source
[3] = system: Cap0 or Cap1 25 mer transcript; conditions: 5-135 ng protein, 10 minutes at 30° C.
[4] = system: 3′ DTB-GTP capped 25mer T7 transcript; conditions: 30 minutes at 37° C. in 1× Thermopol Buffer

Row | Molecule | recovery of transcript after streptavidin binding and biotin elution [1] | capping of 5′ triphosphorylated RNA by VCE [2] | further results
1 | 2′-DBT-TEG-guanosine 5′ triphosphate [2′ DBT-TEG-GTP] | little to no P^32; also recorded: no better than control GTP for recovery | – | –
2 | 3′-DBT-TEG-guanosine 5′ triphosphate [3′ DBT-TEG-GTP] | selectively bound to the streptavidin beads and eluted with 10 mM biotin; also recorded: recovered after binding to streptavidin | effectively caps | capping of 5′ diphosphate RNA by VCE [2]: substrate for capping
3 | C#CCO[C@H]1[C@@H](O)[C@H](n2cnc3c(=O)[nH]c(N)nc32)O[C@@H]1COP(=O)(O)OP(=O)(O)OP(=O)(O)O [3′ propargyl-GTP, 3′(O-Propargyl) Guanosine 5′ Triphosphate] | – | efficiently incorporated as a modified cap | –
4 | [N-]=[N+]=N[C@H]1C[C@H](n2cnc3c(=O)[nH]c(N)nc32)O[C@@H]1COP(=O)(O)OP(=O)(O)OP(=O)(O)O [3′-azido-GTP, 3′-Azido-2′,3′ ddGTP, reference compound] | – | can be capped | –
5 | Nc1nc2c(ncn2[C@@H]2O[C@H](COP(=O)(O)OP(=O)(O)OP(=O)(O)O)[C@@H](O)[C@H]2O)c(=O)[nH]1 [GTP, reference compound] | little to no P^32 | – | –
6 | B1 | – | – | decapping of capped RNA [3]: can decap RNA
7 | B2 | – | – | decapping of DTB-GTP-capped RNA [4]: effectively decaps
